The target in one data set is T1, JAK2 (Homo sapiens, UniProt O60674).
T1 construct: Src, JAK1, and JAK2 were immunoprecipitated from either A549, MDA-MB-468, or v-Src/NIH 3T3 cells; endogenous in cells; host or cells: A549, MDA-MB-468, v-Src transformed NIH 3T3 (immunoprecipitates)
As to the kind of experiment: JAK kinase autophosphorylation assay on immunoprecipitates (JAK2). The format is biochemical. The settings on record: immunoprecipitates from A549, MDA-MB-468 or v-Src/NIH 3T3 cells; AG490 100 μM, PD180970 2 μM. Here is the method: JAK Kinase Assays. A549, MDA-MB-468, and v-Src transformed NIH 3T3 cells were harvested, washed three times in PBS-V (10 mM sodium phosphate, pH 7.4, 137 mM NaCl, 1 mM sodium orthovanadate) then lysed for 30 min on ice in JAK kinase lysis buffer (25 mM Hepes, pH 7.4, 0.1% Triton-X-100, 0.5 mM DTT, 1 mM sodium orthovanadate, 1 mM PMSF, 10 μg/ml aprotinin, 10 μg/ml leupeptin). Samples were spun at high speed to clear, and 800-1000 μg of protein was immunoprecipitated per treatment condition with 50 ng of either JAK1 or JAK2 antibody (Santa Cruz Biotechnology) rocking overnight at 4° C. 25 μl of protein A/G PLUS agarose then was added and rocking continued for 1 hr at 4° C. Samples were spun to collect agarose pellet, and pellet washed twice in wash buffer (50 mM Hepes, pH 7.4, 0.1% Triton-X-100, 0.5 mM DTT, 150 mM NaCl) and once in phosphorylation buffer (50 mM Hepes, pH 7.4, 0.1% Triton-X-100, 0.5 mM DTI, 6.25 mM manganese chloride, 100 mM NaCl). Kinase reactions were performed at 30° C. for 15 min in a final volume of 100 μl of phosphorylation buffer. Samples were pretreated with DMSO control, JSI-124, and control compounds (AG490, 100 μM, and […], 2 μM) before addition of 20 μCi/sample y-[^32P]ATP. Reaction was halted using stop buffer (wash buffer plus 10 mM EDTA), samples spun to collect pellet, then pellet washed once with stop buffer and twice with wash buffer. Samples were then placed in 2×SDS-PAGE sample buffer, boiled at 100° C., and run on 8% SDS-PAGE gels to separate proteins. Autophosphorylation results were visualized by autoradiography.

The subject of a further data set is Ras/NIH 3T3 tumors. As to the kind of experiment: Antitumor activity, oncogenic Ras-transformed NIH 3T3 tumors in nude mice. The format is in vivo. The conditions noted are these: 1 mg/kg/day i.p. The text has this:
(§1) Antitumor Activity in the Nude Mouse Tumor Xenograft Model. Nude mice and C57 BL-6 black mice (National Cancer Institute, Bethesda, Md.) were maintained in accordance with the Institutional Animal Care and Use Committee (IACUC) procedures and guidelines. v-Src- and oncogenic H-Ras-transformed NIH 3T3, A549, MDA-MB-468 and Calu-1 cells were harvested, resuspended in PBS and injected s.c. into the right and left flank (10×10^6 cells per flank) of 8 week old female nude mice as reported previously (Sun, J. et al. Cancer Res., 1999, 59:4919-4926). Similarly, murine B16-F10 Melanoma cells were injected s.c. into the right and left flank (10^6 cells per flank) of C57 black mice. When tumors reached about 150 mm^3, animals were randomized (five animals per group; two tumors per animal) and dosed i.p. with 0.2 ml once daily. Control animals received DMSO (20%) vehicle whereas treated animals were injected with JSI-124 (1 mg/kg/day) in 20% DMSO in water. The tumor volumes were determined by measuring the length (l) and the width (w) and calculating the volume (V=1w^2/2) as described previously (Sun, J. et al. Cancer Res., 1999, 59:4919-4926). Statistical significance between control and treated animals were evaluated by using Student's t-test. […] Percent surviving mice was determined by monitoring the death of mice until all mice died. […]

The test system of another data set is A549 tumors. As to the kind of experiment: Antitumor activity, A549 xenograft in nude mice. The format is in vivo.
Excerpt: as §1, with “Control animals received DMSO (20%) vehicle whereas treated animals were injected with JSI-124 (1 mg/kg/day) in 20% DMSO in water.” left out, “t-test. For the mouse survival experiments, C57 BL-6 black mice were implanted s.c. with B16-F10 cells (10^5 to 10^6 cells per flank).” for “t-test.”

Data set [1] can be described thus: Tolerability observations in treated mice. The class given is in vivo. The source says: Antitumor Activity in the Nude Mouse Tumor Xenograft Model. Nude mice and C57 BL-6 black mice (National Cancer Institute, Bethesda, Md.) were maintained in accordance with the Institutional Animal Care and Use Committee (IACUC) procedures and guidelines. v-Src- and oncogenic H-Ras-transformed NIH 3T3, A549, MDA-MB-468 and Calu-1 cells were harvested, resuspended in PBS and injected s.c. into the right and left flank (10×10^6 cells per flank) of 8 week old female nude mice as reported previously (Sun, J. et al. Cancer Res., 1999, 59:4919-4926). Similarly, murine B16-F10 Melanoma cells were injected s.c. into the right and left flank (10^6 cells per flank) of C57 black mice. When tumors reached about 150 mm^3, animals were randomized (five animals per group; two tumors per animal) and dosed i.p. with 0.2 ml once daily. […] The tumor volumes were determined by measuring the length (l) and the width (w) and calculating the volume (V=1w^2/2) as described previously (Sun, J. et al. Cancer Res., 1999, 59:4919-4926). Statistical significance between control and treated animals were evaluated by using Student's t-test. For the mouse survival experiments, C57 BL-6 black mice were implanted s.c. with B16-F10 cells (10^5 to 10^6 cells per flank). On day 5 after implantation the mice were randomized (6 animals per group) and treated with either vehicle or JSI-124 (1 mg/Kg/day) for 25 days. Percent surviving mice was determined by monitoring the death of mice until all mice died. Two experiments of 12 animals each (6 control and 6 treated with JSI-124) were carried out. For statistical analysis: for each of the two experiments, mice receiving JSI-124 were compared to those receiving vehicle control with respect to survival using the permutation log rank test as implemented in the statistical software package, ProcStatXact (p-values are two sided and exact).

T1 sequence (O60674 whole entry): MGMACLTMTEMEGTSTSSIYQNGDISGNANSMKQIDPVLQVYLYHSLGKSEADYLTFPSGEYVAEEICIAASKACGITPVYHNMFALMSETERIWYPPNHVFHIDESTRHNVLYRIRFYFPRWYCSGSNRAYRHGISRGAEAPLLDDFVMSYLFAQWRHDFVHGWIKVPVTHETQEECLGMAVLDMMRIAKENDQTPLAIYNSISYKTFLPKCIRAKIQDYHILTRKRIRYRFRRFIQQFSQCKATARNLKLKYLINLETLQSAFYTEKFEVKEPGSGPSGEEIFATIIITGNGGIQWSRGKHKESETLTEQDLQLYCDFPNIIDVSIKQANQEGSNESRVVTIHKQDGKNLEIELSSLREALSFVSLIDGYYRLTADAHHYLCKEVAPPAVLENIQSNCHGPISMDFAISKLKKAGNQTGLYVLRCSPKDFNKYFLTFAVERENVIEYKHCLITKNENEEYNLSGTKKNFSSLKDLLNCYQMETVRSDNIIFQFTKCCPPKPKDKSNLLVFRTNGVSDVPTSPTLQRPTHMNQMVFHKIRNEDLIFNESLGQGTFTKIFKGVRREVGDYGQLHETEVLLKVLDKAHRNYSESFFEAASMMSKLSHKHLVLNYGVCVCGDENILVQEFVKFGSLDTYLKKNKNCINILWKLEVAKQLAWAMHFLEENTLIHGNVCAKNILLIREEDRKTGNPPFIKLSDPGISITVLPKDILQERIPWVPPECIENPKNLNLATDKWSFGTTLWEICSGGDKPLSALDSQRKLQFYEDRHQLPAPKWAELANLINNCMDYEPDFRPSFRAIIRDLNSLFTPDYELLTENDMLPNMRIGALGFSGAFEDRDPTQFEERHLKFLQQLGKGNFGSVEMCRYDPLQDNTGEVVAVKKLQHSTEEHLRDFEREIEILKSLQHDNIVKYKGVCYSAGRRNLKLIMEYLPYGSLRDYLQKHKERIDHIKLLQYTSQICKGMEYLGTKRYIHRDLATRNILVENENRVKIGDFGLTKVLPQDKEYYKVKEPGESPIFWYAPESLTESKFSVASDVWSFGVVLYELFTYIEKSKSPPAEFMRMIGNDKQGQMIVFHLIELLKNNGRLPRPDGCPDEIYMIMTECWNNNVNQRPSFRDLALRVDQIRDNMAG

Regarding `CC(C)(O)/C=C/C(=O)[C@](C)(O)[C@H]1[C@H](O)C[C@@]2(C)[C@@H]3CC=C4[C@@H](C=C(O)C(=O)C4(C)C)[C@]3(C)C(=O)C[C@]12C` [JSI-124, cucurbitacin I], the “JAK2 kinase activity (autophosphorylation) in vitro” value on JAK2 was “not affected”. Besides, the “growth of Ras/NIH 3T3 tumors” value with Ras/NIH 3T3 tumors is recorded as “resistant”. Further, the “inhibition of A549 tumor growth, reduced dose” value with A549 tumors (0.5 mg/kg/day for 23 days, nude mice (data not shown)) was determined as 52%. In the data set with A549 tumors (1 mg/kg/day i.p., nude mice), the “inhibition of A549 tumor growth” value was determined as 76%. In data set [1] (1 mg/kg/day and 0.5 mg/kg/day i.p.), the “effects on body weight, activity or food intake of mice” value is recorded as “no effects on body weight, activity or food intake”. Besides, the “edema at the local site of drug injection (peritoneal cavity)” value in data set [1] (1 mg/kg/day i.p.) is given as “caused edema”.

The values are drawn from patent US8691799B2, “Materials and methods for treatment of cancer and identification of anti-cancer compounds” (priority 2001, dated 2014).
